Results from US20260176289A1, “SMALL MOLECULE INHIBITORS OF KRAS PROTEINS” (Merck Sharp & Dohme LLC, priority 2022, published 2026).
Like-named read-outs stand apart in the source and are kept apart here.

Legend:
[1] = molecular target: KRAS-WT (Homo sapiens, UniProt P01116); assay: SOS-catalyzed nucleotide exchange assay (Procedure A, TR-FRET), KRAS-WT; format: biochemical
In short: (§1)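 TR-FRET 520/495 nm ratio read after SOS-driven exchange of Bodipy-GDP for unlabeled GTP (3 mM) on biotinylated RAS bound to Tb-streptavidin. There was a 60 min compound preincubation, RT. Final RAS/SOS and reaction times: G12C 3 nM/40 nM; WT 1 nM/40 nM; NRAS 1.25 nM/40 nM, each 60 min. G12V was 1.25 nM/160 nM, 90 min.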

[2] = molecular target: KRAS-G12D (Homo sapiens, UniProt P01116, G12D); assay: SOS-catalyzed nucleotide exchange assay (Procedure A, TR-FRET), KRAS-G12D; format: biochemical
In short: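 Signal ratio (520/495 nm, excitation 340 nm) reports Bodipy-GDP retention on biotinylated RAS after SOS-catalyzed exchange with 3 mM GTP. SOS was 40 nM, except 160 nM for G12V. Room-temperature exchange lasted 60 min (90 min for G12V), following a 60 min compound preincubation.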

[3] = molecular target: KRAS-G12V (Homo sapiens, UniProt P01116, G12V); assay: SOS-catalyzed nucleotide exchange assay (Procedure A, TR-FRET), KRAS-G12V; format: biochemical
In short: as §1

[4] = test system: AsPC-1 cells; assay: Cellular phospho-ERK assay, AsPC-1 cells (homozygous KRAS-G12D); format: cell-based; conditions: Homo sapiens, read-out: AsPC1 pERK IC50
In short: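 Cells were seeded overnight, then treated 2 h at 37° C with compound in a 10-point, 1:3 titration from 30 μM top final concentration. Lysates were assayed by AlphaLISA SureFire Ultra for p-ERK and total ERK. IC50 came from a 4-parameter logistic fit of the p-ERK/total ERK ratio.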

[5] = nucleotide exchange, read-out: KRAS WT GNE IC50
[6] = nucleotide exchange, read-out: KRAS G12D GNE IC50
[7] = nucleotide exchange, read-out: KRAS G12V GNE IC50
[8] = ASPC1, 2 h, 2 hours compound incubation
[9] = ASPC1, 2 hours compound incubation
[10] = KRAS G12D GNE IC50, nucleotide exchange
[11] = KRAS G12V GNE IC50, nucleotide exchange

KRAS-WT, sequence (P01116 with tags, fused parts or gaps isoform P01116-2): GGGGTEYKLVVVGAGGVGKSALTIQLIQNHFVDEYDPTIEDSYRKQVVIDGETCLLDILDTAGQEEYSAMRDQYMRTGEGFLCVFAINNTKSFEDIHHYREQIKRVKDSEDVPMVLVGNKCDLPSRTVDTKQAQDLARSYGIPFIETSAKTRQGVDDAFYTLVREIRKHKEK
KRAS-G12V, sequence (P01116 with tags, fused parts or gaps isoform P01116-2 G12V): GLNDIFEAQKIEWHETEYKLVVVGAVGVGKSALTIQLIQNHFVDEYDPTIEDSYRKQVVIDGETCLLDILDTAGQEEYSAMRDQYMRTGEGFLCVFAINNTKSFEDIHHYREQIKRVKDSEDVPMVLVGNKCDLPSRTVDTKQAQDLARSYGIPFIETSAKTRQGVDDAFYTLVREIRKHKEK
KRAS-G12D, sequence (P01116 with tags, fused parts or gaps isoform P01116-2 G12D): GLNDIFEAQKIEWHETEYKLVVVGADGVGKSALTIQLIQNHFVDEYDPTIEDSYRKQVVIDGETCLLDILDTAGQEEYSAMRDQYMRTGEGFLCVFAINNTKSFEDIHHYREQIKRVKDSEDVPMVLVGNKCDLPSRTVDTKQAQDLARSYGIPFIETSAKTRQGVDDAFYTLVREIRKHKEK

| Compound | IC50 [1, 5] [nM] | IC50 [2, 6] [nM] | IC50 [3, 7] [nM] | IC50 [4, 8] [nM] | IC50 [4, 9] [nM] | IC50 ([1]; KRAS WT GNE IC50, nucleotide exchange) [nM] | IC50 [2, 10] [nM] | IC50 [3, 11] [nM] | IC50 ([4]; ASPC1, 2 h, KRAS-G12D, 2 hours) [nM] | IC50 ([4]; ASPC1, KRAS-G12D, 2 hours) [nM] |
| --- | --- | --- | --- | --- | --- | --- | --- | --- | --- | --- |
| C[C@@]1(O)COCCN(c2nc(OC[C@]3(CN4C[C@@H]5C[C@H]4CO5)CC3(F)F)nc3sc4c(-c5c(C6(F)CC6)c(Cl)cc6[nH]ncc56)nccc4c23)C1 [Ex-236, (6S)-4-(2-(((R)-1-(((15,4S)-2-oxa-5-azabicyclo[2.2.1]heptan-5-yl)methyl)-2,2-difluorocyclopropyl)methoxy)-8-(6-chloro-5-(1-fluorocyclopropyl)-1H-indazol-4-yl)pyrido[4′,3′:4,5]thieno[2,3-d]pyrimidin-4-yl)-6-methyl-1,4-oxazepan-6-ol] | 121 | 16.2 | 34.8 | 242 |  |  |  |  |  |  |
| C#CC(F)(F)c1c(C)cc2[nH]ncc2c1-c1nccc2c1sc1nc(OC[C@@]34CCCN3C[C@H](F)C4)nc(N3CCOC[C@@](C)(O)C3)c12 [Ex-153, (6S)-4-(8-(5-(1,1-difluoroprop-2-yn-1-yl)-6-methyl-1H-indazol-4-yl)-2-(((2R,7aS)-2-fluorotetrahydro-1H-pyrrolizin-7a(5H)-yl)methoxy)pyrido[4′,3′:4,5]thieno[2,3-d]pyrimidin-4-yl)-6-methyl-1,4-oxazepan-6-ol] | 322 | 123 | 215 |  | 1640 |  |  |  |  |  |
| C[C@@]1(O)COCCN(c2nc(OC[C@]3(CN4CC5(CCC5)C4)CC3(F)F)nc3sc4c(-c5c(C6(F)CC6)c(Cl)cc6[nH]ncc56)nccc4c23)C1 [Ex-256, (6S)-4-(2-(((R)-1-((2-azaspiro[3.3]heptan-2-yl)methyl)-2,2-difluorocyclopropyl)methoxy)-8-(6-chloro-5-(1-fluorocyclopropyl)-1H-indazol-4-yl)pyrido[4′,3′:4,5]thieno[2,3-d]pyrimidin-4-yl)-6-methyl-1,4-oxazepam-6-ol] |  |  |  |  | 126 | 16.5 | 4.41 | 11.1 |  |  |
| C[C@@]1(O)COCCN(c2nc(OC[C@@]34CCCN3C[C@H](F)C4)nc3sc4c(-c5c(C6CC6)c(C#N)cc6[nH]ncc56)nccc4c23)C1 [Ex-51, 5-cyclopropy1-4-(2-(((2R,7aS)-2-fluorotetrahydro-1H-pyrrolizin-7a(5H)-yl)methoxy)-4-((S)-6-hydroxy-6-methyl-1,4-oxazepan-4-yl)pyrido[4′,3′:4,5]thieno [2,3-d]pyrimidin-8-yl)-1H-indazole-6-carbonitrile] | 234 | 115 | 140 |  |  |  |  |  | 1410 |  |
| C[C@@]1(O)COCCN(c2nc(OC[C@@]34CCCN3C[C@H](F)C4)nc3sc4c(-c5cccc(Cl)c5[Si](C)(C)C)nccc4c23)C1 [Ex-123, (S)-4-(8-(3-chloro-2-(trimethylsilyl)phenyl)-2-(((2R,7aS)-2-fluorotetrahydro-1H-pyrrolizin-7a(5H)-yl)methoxy)pyri-do[4′,3′:4,5]thieno[2,3-d]pyrimidin-4-yl)-6-methyl-1,4-oxazepan-6-ol] | 434 |  |  |  |  |  | 173 | 157 |  | 2060 |
| CC1=CCc2cc3[nH]ncc3c(-c3nccc4c3sc3nc(OC[C@@]56CCCN5C[C@H](F)C6)nc(N5CCOC[C@@](C)(O)C5)c34)c21 [Ex-106, (6S)-4-(2-(((2R,7aS)-2-fluorotetrahydro-1H-pyrrolizin-7a(5H)-yl)methoxy)-8-(5-methyl-1,7-dihydrocyclopenta[f]inda-zol-4-yl)pyrido[4′,3′:4,5]thieno [2,3-d]pyrimidin-4-yl)-6-methyl-1,4-oxazepan-6-ol] | 55.1 | 19.7 | 30.6 |  |  |  |  |  | 128 |  |
| Cc1cc2[nH]ncc2c(-c2nccc3c2C2(CC2)c2nc(OC[C@@]45CCCN4C[C@H](F)C5)nc(N4CCOC[C@@](C)(O)C4)c2-3)c1C(F)(F)F (single isomer, unassigned) [Ex-307] | 22.4 | 8.96 | 24.7 |  |  |  |  |  | 258 |  |
| C[C@@]1(O)COCCN(c2nc(OC[C@]3(CN4[C@@H]5CC[C@H]4C[C@@H](F)C5)CC3(F)F)nc3sc4c(-c5c(C6(F)CC6)c(Cl)cc6[nH]ncc56)nccc4c23)C1 [Ex-242, (6S)-4-(8-(6-chloro-5-(1-fluorocyclopropyl)-1H-indazol-4-yl)-2-(((R)-2,2-difluoro-1-(((1R,3R,5S)-3-fluoro-8-azabicyclo[3.2.1]octan-8-yl)methyl)cyclopropyl)metho-xy)pyrido[4′,3′:4,5]thieno[2,3-d]pyrimidin-4-yl)-6-methyl-1,4-oxazepan-6-ol] | 694 | 90.7 | 348 | 1150 |  |  |  |  |  |  |
| CC1CCc2ccc(F)c(-c3nccc4c3sc3nc(OC[C@@]56CCCN5C[C@H](F)C6)nc(N5CCOC[C@@](C)(O)C5)c34)c21 (single isomer, unassigned) [Ex-118] | 432 | 150 | 123 |  |  |  |  |  | 1060 |  |
| Cc1cc2[nH]ncc2c(-c2nccn3c2cc2nc(OC[C@@]45CCCN4C[C@H](F)C5)nc(N4CCOC[C@@](C)(O)C4)c23)c1C1CC1 [Ex-295, (S)-4-(9-(5-cyclopropyl-6-methyl-1H-indazol-4-yl)-2-(((2R,7aS)-2-fluorotetrahydro-1H-pyrrolizin-7a(5H)-yl)methoxy)pyrazino[1′,2′:1,5]pyrrolo[3,2-d]pyrimidin-4-yl)-6-methyl-1,4-oxazepan-6-ol] | 185 | 72.1 | 98.2 |  |  |  |  |  | 1900 |  |
| CC1(C)C2CN(C[C@@]3(COc4nc(N5CCOC[C@@](C)(O)C5)c5c(n4)sc4c(-c6c(C7(F)CC7)c(Cl)cc7[nH]ncc67)nccc45)CC3(F)F)CC21 (stereo partly drawn) [Ex-234, (6S)-4-(8-(6-chloro-5-(1-fluorocyclopropyl)-1H-indazol-4-yl)-2-(((1R)-1-((6,6-dimethyl-3-azabicyclo[3.1.0]hexan-3-yl)methyl)-2,2-difluorocyclopropyl)methoxy)pyrido[4′,3′:4,5]thieno[2,3-d]pyrimidin-4-yl)-6-methyl-1,4-oxazepan-6-ol] | 389 | 27.4 | 107 | 1520 |  |  |  |  |  |  |
| C[C@@]1(O)COCCN(c2nc(OC[C@]3(CN4C[C@@H]5CCCO[C@H]5C4)CC3(F)F)nc3sc4c(-c5c(C6(F)CC6)c(Cl)cc6[nH]ncc56)nccc4c23)C1 [Ex-252, (6S)-4-(8-(6-chloro-5-(1-fluorocyclopropyl)-1H-indazol-4-yl)-2-(((R)-2,2-difluoro-1-(((4aS,7aR)-hexahydropyrano[2,3-c]pyrrol-6(2H)-yl)methyl)cyclopropyl)methoxy)pyrido[4′,3′:4,5]thieno[2,3-d]pyrimidin-4-yl)-6-methyl-1,4-oxazepan-6-ol] | 57.8 | 4.96 | 32.2 | 232 |  |  |  |  |  |  |
| C[C@@]1(O)COCCN(c2nc(OC[C@@]34CCCN3C[C@H](F)C4)nc3sc4c(-c5c(C67CC(C6)C7)ccc6[nH]ncc56)nccc4c23)C1 [Ex-42, (6S)-4-(8-(5-(bicyclo[1.1.1]pentan-1-yl)-1H-indazol-4-yl)-2-(((2R,7aS)-2-fluorotetrahydro-1H-pyrrolizin-7a(5H)-yl)methoxy)pyrido[4′,3′:4,5]thi-eno[2,3-d]pyrimidin-4-yl)-6-methyl-1,4-oxazepan-6-ol] | 286 | 135 | 144 |  |  |  |  |  | 1380 |  |
| Cc1cc2[nH]ncc2c(-c2nccc3c2sc2nc(OC[C@@]45CCCN4C[C@H](F)C5)nc(N4CCC[C@]5(CCO5)C4)c23)c1C(F)(F)F [Ex-200] | 474 | 141 | 92.9 | 613 |  |  |  |  |  |  |
| Cc1cc2[nH]ncc2c(-c2nccc3c2sc2nc(OC[C@@]45CCCN4C[C@H](F)C5)nc(N4CCCC5(CC(=O)N5)C4)c23)c1C(F)(F)F (stereo partly drawn) [Ex-195, 6-(2-(((2R,7aS)-2-fluoro-tetrahydro-1H-pyrrolizin-7a(5H)-yl)methoxy)-8-(6-methyl-5-(trifluorometh-yl)-1H-indazol-4-yl)pyrido [4′,3′:4,5]thieno[2,3-d]pyrimidin-4-yl)-1,6-diaza-spiro[3.5]nonan-2-one] | 251 | 76.7 | 77.9 | 7560 |  |  |  |  |  |  |
| C[C@@]1(O)COCCN(c2nc(OC[C@@]34CCCN3C[C@H](F)C4)nc3sc4c(-c5c(-c6cc[nH]c6)c(Cl)cc6[nH]ncc56)nccc4c23)C1 [Ex-73, (6S)-4-(8-(6-chloro-5-(1H-pyrrol-3-yl)-1H-indazol-4-yl)-2-(((2R,7aS)-2-fluorotetrahydro-1H-pyrrolizin-7a(5H)-yl)methoxy)pyrido[4′,3′:4,5]thi-eno[2,3-d]pyrimidin-4-yl)-6-methyl-1,4-oxazepan-6-ol] | 60.4 | 9.67 | 52.2 |  |  |  |  |  | 1060 |  |
